# Source: ChEMBL document CHEMBL1144896 (2003)
# How the values were obtained:
# Assay type in all cases: functional
# BJ [1] = assay: Compound was tested for human telomerase reverse transcriptase-SEAP (hTERT-SEAP) activity in immortalized hTERT-BJI at 3.0 uM concentration
# NCI-H1299 [2] = assay: Compound was tested for human telomerase reverse transcriptase-SEAP (hTERT-SEAP) activity in non-small cell lung cancer H1299 cell at 300.0 uM concentration
# BJ [3] = assay: hTERT-SEAP (Human telomerase reverse transcriptase-SEAP) activity in immortalized hTERT-BJI at 300.0 uM concentration and level of cell viability determined in MTT assay
# NCI-H1299 [4] = assay: Compound was tested for human telomerase reverse transcriptase-SEAP (hTERT-SEAP) activity in non-small cell lung cancer H1299 cell at 3.0 uM concentration
# NCI-H1299 [5] = assay: Compound was tested for human telomerase reverse transcriptase-SEAP (hTERT-SEAP) activity in non-small cell lung cancer H1299 cell at 30.0 uM concentration
# NCI-H1299 [6] = assay: hTERT-SEAP (Human telomerase reverse transcriptase-SEAP) activity in non-small cell lung cancer H1299 cell at 3.0 uM concentration and level of cell viability determined in MTT assay
# BJ [7] = assay: hTERT-SEAP (Human telomerase reverse transcriptase-SEAP) activity in immortalized hTERT-BJI at 30.0 uM concentration and level of cell viability determined in MTT assay
# BJ [8] = assay: Compound was tested for human telomerase reverse transcriptase-SEAP (hTERT-SEAP) activity in immortalized hTERT-BJI at 300.0 uM concentration
# NCI-H1299 [9] = assay: hTERT-SEAP (Human telomerase reverse transcriptase-SEAP) activity in non-small cell lung cancer H1299 cell at 30.0 uM concentration and level of cell viability determined in MTT assay
# BJ [10] = assay: Compound was tested for human telomerase reverse transcriptase-SEAP (hTERT-SEAP) activity in immortalized hTERT-BJI at 30.0 uM concentration
# BJ [11] = assay: hTERT-SEAP (Human telomerase reverse transcriptase-SEAP) activity in immortalized hTERT-BJI at 3.0 uM concentration and level of cell viability determined in MTT assay
# NCI-H1299 [12] = assay: hTERT-SEAP (Human telomerase reverse transcriptase-SEAP) activity in non-small cell lung cancer H1299 cell at 300.0 uM concentration and level of cell viability determined in MTT assay
# NCI-H1299 [13] = assay: Compound was tested for human telomerase reverse transcriptase-SEAP (hTERT-SEAP) activity in non-small cell lung cancer H1299 cell at 240.0 uM concentration
# NCI-H1299 [14] = assay: hTERT-SEAP (Human telomerase reverse transcriptase-SEAP) activity in non-small cell lung cancer H1299 cell at 2.4 uM concentration and level of cell viability determined in MTT assay
# NCI-H1299 [15] = assay: hTERT-SEAP (Human telomerase reverse transcriptase-SEAP) activity in non-small cell lung cancer H1299 cell at 24 uM concentration and level of cell viability determined in MTT assay
# BJ [16] = assay: Compound was tested for human telomerase reverse transcriptase-SEAP (hTERT-SEAP) activity in immortalized hTERT-BJI at 240.0 uM concentration
# BJ [17] = assay: Compound was tested for human telomerase reverse transcriptase-SEAP (hTERT-SEAP) activity in immortalized hTERT-BJI at 24 uM concentration
# NCI-H1299 [18] = assay: Compound was tested for human telomerase reverse transcriptase-SEAP (hTERT-SEAP) activity in non-small cell lung cancer H1299 cell at 2.4 uM concentration
# BJ [19] = assay: hTERT-SEAP (Human telomerase reverse transcriptase-SEAP) activity in immortalized hTERT-BJI at 24 uM concentration and level of cell viability determined in MTT assay
# NCI-H1299 [20] = assay: Compound was tested for human telomerase reverse transcriptase-SEAP (hTERT-SEAP) activity in non-small cell lung cancer H1299 cell at 24 uM concentration
# BJ [21] = assay: Compound was tested for human telomerase reverse transcriptase-SEAP (hTERT-SEAP) activity in immortalized hTERT-BJI at 2.4 uM concentration
# BJ [22] = assay: hTERT-SEAP (Human telomerase reverse transcriptase-SEAP) activity in immortalized hTERT-BJI at 240.0 uM concentration and level of cell viability determined in MTT assay
# NCI-H1299 [23] = assay: hTERT-SEAP (Human telomerase reverse transcriptase-SEAP) activity in non-small cell lung cancer H1299 cell at 240.0 uM concentration and level of cell viability determined in MTT assay
compound,measurement,setting,value
CCSc1cccc2c1C(=O)c1cccc(SCC)c1C2=O,Relative SEAP activity,BJ [1],109%
same,Relative SEAP activity,NCI-H1299 [2],99%
same,Relative viability,BJ [3],34%
same,Relative SEAP activity,NCI-H1299 [4],134%
same,Relative SEAP activity,NCI-H1299 [5],111%
same,Relative viability,NCI-H1299 [6],111%
same,Relative viability,BJ [7],98%
same,Relative SEAP activity,BJ [8],104%
same,Relative viability,NCI-H1299 [9],44%
same,Relative SEAP activity,BJ [10],110%
same,Relative viability,BJ [11],112%
same,Relative viability,NCI-H1299 [12],25%
O=C1c2cccc(SCC(O)CO)c2C(=O)c2cccc(SCC(O)CO)c21 (stereo not drawn),Relative SEAP activity,NCI-H1299 [13],81%
same,Relative viability,NCI-H1299 [14],102%
same,Relative viability,NCI-H1299 [15],103%
same,Relative SEAP activity,BJ [16],142%
same,Relative SEAP activity,BJ [17],136%
same,Relative SEAP activity,NCI-H1299 [18],105%
same,Relative viability,BJ [19],86%
same,Relative SEAP activity,NCI-H1299 [20],90%
same,Relative SEAP activity,BJ [21],144%
same,Relative viability,BJ [22],79%
same,Relative viability,NCI-H1299 [23],83%
